Laboratory results from paper PMC9264488, “Potentiation of endocannabinoids and other lipid amides prevents hyperalgesia and inflammation in a pre-clinical model of migraine” (The Journal of Headache and Pain, 2022).
Where two headings read alike, the source gives them in different places.

How the values were obtained:
[1] = molecular target: T1, fatty acid amide hydrolase (r-FAAH) (Rattus norvegicus, UniProt P97612); test: biochemical
[2] = molecular target: T1, fatty acid amide hydrolase (r-FAAH)

T1 sequence (P97612 whole entry): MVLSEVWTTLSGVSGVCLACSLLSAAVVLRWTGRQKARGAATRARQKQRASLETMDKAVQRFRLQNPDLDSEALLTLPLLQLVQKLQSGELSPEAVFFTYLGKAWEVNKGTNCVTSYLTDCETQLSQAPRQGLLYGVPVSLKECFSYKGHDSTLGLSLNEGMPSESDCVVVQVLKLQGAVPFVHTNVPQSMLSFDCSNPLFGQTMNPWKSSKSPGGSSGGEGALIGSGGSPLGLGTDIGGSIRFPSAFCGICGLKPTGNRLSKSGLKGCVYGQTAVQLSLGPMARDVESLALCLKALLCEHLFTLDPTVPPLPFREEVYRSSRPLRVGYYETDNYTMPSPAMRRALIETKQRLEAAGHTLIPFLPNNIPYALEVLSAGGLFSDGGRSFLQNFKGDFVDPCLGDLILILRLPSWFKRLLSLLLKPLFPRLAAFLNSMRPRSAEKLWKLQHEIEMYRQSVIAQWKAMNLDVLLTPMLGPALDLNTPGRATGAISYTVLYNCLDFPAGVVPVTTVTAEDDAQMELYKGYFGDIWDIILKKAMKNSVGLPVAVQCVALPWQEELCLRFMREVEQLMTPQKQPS

Row | Structure (SMILES) | IC50 [1] | IC50 [2]
1 | NC(=O)c1cccc(-c2cc(OC(=O)NC3CCCCC3)ccc2OC(F)F)c1 [ARN14280, [3-(3-carbamoylphenyl)-4-(difluoromethoxy)phenyl] N-cyclohexylcarbamate] | 1.5 ± 0.3 nM | –
2 | CNC(=O)c1cccc(-c2cc(OC(=O)NC3CCCCC3)ccc2F)c1 [ARN14633, [4-fluoro-3-[3-(methylcarbamoyl)phenyl]phenyl] N-cyclohexylcarbamate] | – | 1.4 ± 0.3 nM
